In publication PMC5218480 (PLoS ONE, 2017):

Tested on: MV-4-11 cells
Assay: Gene expression microarray analysis (Affymetrix PrimeView) and GSEA
Format: cell-based, human
Design: RFU PODN (11730768_x_at) / Fold change /veh PODN (11730768_x_at) / RFU LINC00158 (11744669_a_at) / Fold change /veh LINC00158 (11744669_a_at) / RFU DUSP10 (11751237_a_at) / Fold change /veh DUSP10 (11751237_a_at) / RFU ID3 (11757404_x_at) / Fold change /veh ID3 (11757404_x_at) / RFU PLEKHG5 (11737974_s_at) / Fold change /veh PLEKHG5 (11737974_s_at) / RFU LRRC4B (11730491_at) / Fold change /veh LRRC4B (11730491_at) / RFU GIMAP4 (11747438_a_at) / Fold change /veh GIMAP4 (11747438_a_at) / RFU KRT8 (11758183_x_at) / Fold change /veh KRT8 (11758183_x_at) / RFU CNN1 (11734310_a_at) / Fold change /veh CNN1 (11734310_a_at) / RFU VPS37D (11726825_at) / Fold change /veh VPS37D (11726825_at) / RFU C10orf10 (11716522_x_at) / Fold change /veh C10orf10 (11716522_x_at) / RFU KIR2DL2 /// KIR2DL4 /// KIR2DL5A /// KIR2DL5B /// KIR2DS1 /// KIR2DS2 /// KIR2DS3 /// KIR2DS4 /// KIR3DL3 /// KIR3DL3 /// KIR3DS1 (11738374_at) / Fold change /veh KIR2DL2 /// KIR2DL4 /// KIR2DL5A /// KIR2DL5B /// KIR2DS1 /// KIR2DS2 /// KIR2DS3 /// KIR2DS4 /// KIR3DL3 /// KIR3DL3 /// KIR3DS1 (11738374_at) / RFU C1QL1 (11718748_at) / Fold change /veh C1QL1 (11718748_at) / RFU TMPRSS4 (11747572_a_at) / Fold change /veh TMPRSS4 (11747572_a_at) / RFU HAMP (11756126_x_at) / Fold change /veh HAMP (11756126_x_at) / RFU RNFT2 (11725882_a_at) / Fold change /veh RNFT2 (11725882_a_at) / RFU NR4A2 (11747474_a_at) / Fold change /veh NR4A2 (11747474_a_at) / RFU ABCC12 (11746883_a_at) / Fold change /veh ABCC12 (11746883_a_at) / RFU TMEM136 (11760407_x_at) / Fold change /veh TMEM136 (11760407_x_at) / RFU CLDN22 /// WWC2 (11732394_at) / Fold change /veh CLDN22 /// WWC2 (11732394_at) / RFU HLA-DPB1 (11760878_x_at) / Fold change /veh HLA-DPB1 (11760878_x_at) / RFU SPINT1 (11716480_a_at) / Fold change /veh SPINT1 (11716480_a_at) / RFU GAP43 (11754022_s_at) / Fold change /veh GAP43 (11754022_s_at) / RFU A4GNT (11735810_at) / Fold change /veh A4GNT (11735810_at) / RFU PRB3 (11715151_x_at) / Fold change /veh PRB3 (11715151_x_at) / RFU TUBB4B (11761932_at) / Fold change /veh TUBB4B (11761932_at) / RFU CAPN14 (11732068_a_at) / Fold change /veh CAPN14 (11732068_a_at) / RFU TMCC2 (11721928_a_at) / Fold change /veh TMCC2 (11721928_a_at) / RFU IRGQ (11745062_a_at) / Fold change /veh IRGQ (11745062_a_at) / RFU FAM174B (11720279_a_at) / Fold change /veh FAM174B (11720279_a_at) / RFU TMPRSS4 (11748680_a_at) / Fold change /veh TMPRSS4 (11748680_a_at) / RFU FAM212B (11763350_a_at) / Fold change /veh FAM212B (11763350_a_at) / RFU PLEKHG5 (11743358_a_at) / Fold change /veh PLEKHG5 (11743358_a_at) / RFU ZSCAN30 (11745921_a_at) / Fold change /veh ZSCAN30 (11745921_a_at) / RFU CMKLR1 (11741424_a_at) / Fold change /veh CMKLR1 (11741424_a_at) / RFU LOC101060620 /// MAPK8IP1 (11723275_at) / Fold change /veh LOC101060620 /// MAPK8IP1 (11723275_at) / RFU SPTSSB (11747773_x_at) / Fold change /veh SPTSSB (11747773_x_at) / RFU PRSS12 (11739890_at) / Fold change /veh PRSS12 (11739890_at) / RFU BIN1 (11741810_x_at) / Fold change /veh BIN1 (11741810_x_at) / RFU WNT11 (11732464_a_at) / Fold change /veh WNT11 (11732464_a_at) / RFU C10orf10 (11716521_a_at) / Fold change /veh C10orf10 (11716521_a_at) / RFU C5orf56 (11738089_at) / Fold change /veh C5orf56 (11738089_at) / RFU CYB561 (11721691_x_at) / Fold change /veh CYB561 (11721691_x_at) / RFU ANKRD19P (11752326_a_at) / Fold change /veh ANKRD19P (11752326_a_at) / RFU OR2T12 /// OR2T33 /// OR2T8 (11738714_s_at) / Fold change /veh OR2T12 /// OR2T33 /// OR2T8 (11738714_s_at) / RFU VCAN (11748164_a_at) / Fold change /veh VCAN (11748164_a_at) / RFU JSRP1 (11732532_at) / Fold change /veh JSRP1 (11732532_at) / RFU KRTAP10-11 (11738290_x_at) / Fold change /veh KRTAP10-11 (11738290_x_at) / RFU MYO3A (11730013_a_at) / Fold change /veh MYO3A (11730013_a_at) / RFU EBF3 (11725865_a_at) / Fold change /veh EBF3 (11725865_a_at) / RFU CAMK2N1 (11719241_x_at) / Fold change /veh CAMK2N1 (11719241_x_at) / RFU C5orf56 (11738088_a_at) / Fold change /veh C5orf56 (11738088_a_at) / RFU OLFML3 (11715873_a_at) / Fold change /veh OLFML3 (11715873_a_at) / RFU LOC100653217 /// NTM (11731650_a_at) / Fold change /veh LOC100653217 /// NTM (11731650_a_at) / RFU MAPK11 (11762145_a_at) / Fold change /veh MAPK11 (11762145_a_at) / RFU FIZ1 (11724087_x_at) / Fold change /veh FIZ1 (11724087_x_at) / RFU OASL (11726364_x_at) / Fold change /veh OASL (11726364_x_at) / RFU SOX15 (11748057_x_at) / Fold change /veh SOX15 (11748057_x_at) / RFU CD79A (11719716_a_at) / Fold change /veh CD79A (11719716_a_at) / RFU HIST1H1D (11736915_at) / Fold change /veh HIST1H1D (11736915_at) / RFU CASKIN2 (11723855_a_at) / Fold change /veh CASKIN2 (11723855_a_at) / RFU LOC730098 (11760151_x_at) / Fold change /veh LOC730098 (11760151_x_at) / RFU OR4N2 (11742367_at) / Fold change /veh OR4N2 (11742367_at) / RFU PRRT2 (11749266_a_at) / Fold change /veh PRRT2 (11749266_a_at) / RFU SNX32 (11753110_a_at) / Fold change /veh SNX32 (11753110_a_at) / RFU CDHR5 (11726645_a_at) / Fold change /veh CDHR5 (11726645_a_at) / RFU RCAN1 (11760418_a_at) / Fold change /veh RCAN1 (11760418_a_at) / RFU FAM167A (11723789_a_at) / Fold change /veh FAM167A (11723789_a_at) / RFU FAM26E (11764081_at) / Fold change /veh FAM26E (11764081_at) / RFU ISYNA1 (11749810_s_at) / Fold change /veh ISYNA1 (11749810_s_at) / RFU ACY1 (11761880_at) / Fold change /veh ACY1 (11761880_at) / RFU 11764098_at / Fold change /veh 11764098_at / RFU SAMD14 (11745864_x_at) / Fold change /veh SAMD14 (11745864_x_at) / RFU NPB (11741838_a_at) / Fold change /veh NPB (11741838_a_at) / RFU TMPRSS6 (11731388_a_at) / Fold change /veh TMPRSS6 (11731388_a_at) / RFU KRTAP10-2 (11738614_at) / Fold change /veh KRTAP10-2 (11738614_at) / RFU ARHGAP8 /// PRR5-ARHGAP8 (11727945_x_at) / Fold change /veh ARHGAP8 /// PRR5-ARHGAP8 (11727945_x_at) / RFU KRTAP5-7 /// NADSYN1 (11734609_at) / Fold change /veh KRTAP5-7 /// NADSYN1 (11734609_at) / RFU RASL12 (11751679_a_at) / Fold change /veh RASL12 (11751679_a_at) / RFU CDKN2B (11736163_a_at) / Fold change /veh CDKN2B (11736163_a_at) / RFU PRF1 (11729649_at) / Fold change /veh PRF1 (11729649_at) / RFU, ZNF638 /// ZNF638-IT1 / Fold change vs veh, ZNF638 /// ZNF638-IT1 / RFU, PANK3 / Fold change vs veh, PANK3 / RFU, SH3YL1 / Fold change vs veh, SH3YL1 / RFU, ZEB2 / Fold change vs veh, ZEB2 / RFU, NRIP1 / Fold change vs veh, NRIP1 / RFU, PTTG1IP / Fold change vs veh, PTTG1IP / RFU, CAPN2 / Fold change vs veh, CAPN2 / RFU, MED14 / Fold change vs veh, MED14 / RFU, SNORA58 / Fold change vs veh, SNORA58 / RFU, C1orf63 / Fold change vs veh, C1orf63 / RFU, LRRFIP1 / Fold change vs veh, LRRFIP1 / RFU, NDUFAF7 / Fold change vs veh, NDUFAF7 / RFU, SLC12A2 / Fold change vs veh, SLC12A2 / RFU, IBTK / Fold change vs veh, IBTK / RFU, ESF1 / Fold change vs veh, ESF1 / Fold change vs veh, TMEM50B / RFU, TAOK1 / Fold change vs veh, TAOK1 / RFU, ACBD3 / Fold change vs veh, ACBD3 / RFU, TMA16 / Fold change vs veh, TMA16 / RFU, RWDD3 / Fold change vs veh, RWDD3 / RFU, BCAT1 / Fold change vs veh, BCAT1 / RFU, EDEM3 / Fold change vs veh, EDEM3 / RFU, TMEM33 / Fold change vs veh, TMEM33 / RFU, WDR75 / Fold change vs veh, WDR75 / RFU, AHCTF1 / Fold change vs veh, AHCTF1 / RFU, TFRC / Fold change vs veh, TFRC / RFU, ZDHHC17 / Fold change vs veh, ZDHHC17 / RFU, NOM1 / Fold change vs veh, NOM1 / RFU, ARL8B / Fold change vs veh, ARL8B / RFU, ZBTB11 / Fold change vs veh, ZBTB11 / RFU, TAMM41 / Fold change vs veh, TAMM41 / RFU, KIAA1704 /// LOC100996395 / Fold change vs veh, KIAA1704 /// LOC100996395 / RFU, ING1 / Fold change vs veh, ING1 / RFU, TRMT61B / Fold change vs veh, TRMT61B / RFU, FUBP3 / Fold change vs veh, FUBP3 / RFU, TP53 / Fold change vs veh, TP53 / RFU, TNKS2 / Fold change vs veh, TNKS2 / RFU, ZFP14 / Fold change vs veh, ZFP14 / RFU, ACTR2 / Fold change vs veh, ACTR2 / RFU, PPP3R1 / Fold change vs veh, PPP3R1 / RFU, PIK3R1 / Fold change vs veh, PIK3R1 / RFU, HNRNPA1 / Fold change vs veh, HNRNPA1 / RFU, RNF170 / Fold change vs veh, RNF170 / RFU, ZNF28 / Fold change vs veh, ZNF28 / RFU, RNGTT / Fold change vs veh, RNGTT / RFU, OGT / Fold change vs veh, OGT / RFU, BRD1 / Fold change vs veh, BRD1 / RFU, MARS / Fold change vs veh, MARS / RFU, ZNF655 / Fold change vs veh, ZNF655 / RFU, FAHD1 / Fold change vs veh, FAHD1 / RFU, BDP1 / Fold change vs veh, BDP1 / RFU, LRRCC1 / Fold change vs veh, LRRCC1 / RFU, ARID1A / Fold change vs veh, ARID1A / RFU, ZNF146 / Fold change vs veh, ZNF146 / RFU, ZNF330 / Fold change vs veh, ZNF330 / RFU, GPN3 / Fold change vs veh, GPN3 / RFU, C9orf123 / Fold change vs veh, C9orf123 / RFU, N4BP2L2 / Fold change vs veh, N4BP2L2 / RFU, ARFIP1 / Fold change vs veh, ARFIP1 / RFU, FAM179B / Fold change vs veh, FAM179B / RFU, BCL10 / Fold change vs veh, BCL10 / RFU, UHRF1BP1L / Fold change vs veh, UHRF1BP1L / RFU, BET1 / Fold change vs veh, BET1 / RFU, CNOT2 / Fold change vs veh, CNOT2 / RFU, ZNF268 / Fold change vs veh, ZNF268 / Fold change vs veh, ZNF507 / RFU, DGCR2 / Fold change vs veh, DGCR2 / RFU, WDSUB1 / Fold change vs veh, WDSUB1 / Fold change vs veh, HSP90B1 /// MIR3652 / RFU, ADSS / Fold change vs veh, ADSS / RFU, GK / Fold change vs veh, GK / RFU, ZNF148 / Fold change vs veh, ZNF148 / RFU, TAF9 / Fold change vs veh, TAF9 / RFU, SLC1A5 / Fold change vs veh, SLC1A5 / RFU, SLMO2 / Fold change vs veh, SLMO2 / RFU, ABCC4 / Fold change vs veh, ABCC4 / RFU, LOC101060439 /// RAP1B / Fold change vs veh, LOC101060439 /// RAP1B / RFU, RFX7 / Fold change vs veh, RFX7 / RFU, GTPBP10 / Fold change vs veh, GTPBP10 / RFU, CNEP1R1 / Fold change vs veh, CNEP1R1 / RFU, BIVM-ERCC5 /// ERCC5 / Fold change vs veh, BIVM-ERCC5 /// ERCC5 / RFU, ILF3 / Fold change vs veh, ILF3 / RFU 11762660_at / Fold change /veh 11762660_at / RFU VCAN (11757783_s_at) / Fold change /veh VCAN (11757783_s_at) / RFU DDX43 (11728927_at) / Fold change /veh DDX43 (11728927_at) / RFU KRT8 (11758188_x_at) / Fold change /veh KRT8 (11758188_x_at) / RFU NKD1 (11759106_at) / Fold change /veh NKD1 (11759106_at) / RFU SRD5A1 (11742802_a_at) / Fold change /veh SRD5A1 (11742802_a_at) / RFU TPSAB1 /// TPSB2 (11721975_s_at) / Fold change /veh TPSAB1 /// TPSB2 (11721975_s_at) / RFU GSTM3 (11746129_a_at) / Fold change /veh GSTM3 (11746129_a_at) / RFU IL23R (11737362_x_at) / Fold change /veh IL23R (11737362_x_at) / RFU TMEM51 (11727254_a_at) / Fold change /veh TMEM51 (11727254_a_at) / RFU PIWIL2 (11732686_x_at) / Fold change /veh PIWIL2 (11732686_x_at) / RFU ORM1 (11744905_x_at) / Fold change /veh ORM1 (11744905_x_at) / RFU CCDC152 (11743942_at) / Fold change /veh CCDC152 (11743942_at) / RFU ECM1 (11717891_a_at) / Fold change /veh ECM1 (11717891_a_at) / RFU IL23R (11748794_a_at) / Fold change /veh IL23R (11748794_a_at) / RFU TNFAIP8L3 (11732012_x_at) / Fold change /veh TNFAIP8L3 (11732012_x_at) / RFU MBOAT4 (11741988_at) / Fold change /veh MBOAT4 (11741988_at) / RFU 11764193_at / Fold change /veh 11764193_at / RFU TMEM53 (11763286_at) / Fold change /veh TMEM53 (11763286_at) / RFU MAGEB2 (11727129_at) / Fold change /veh MAGEB2 (11727129_at) / RFU TMEM200A (11744735_a_at) / Fold change /veh TMEM200A (11744735_a_at) / RFU CCDC152 (11751479_a_at) / Fold change /veh CCDC152 (11751479_a_at) / RFU FAM211A (11726209_a_at) / Fold change /veh FAM211A (11726209_a_at) / RFU RGS16 (11746705_a_at) / Fold change /veh RGS16 (11746705_a_at) / RFU VCAN (11755009_s_at) / Fold change /veh VCAN (11755009_s_at) / RFU RHOB (11743442_s_at) / Fold change /veh RHOB (11743442_s_at) / RFU RGS16 (11720943_a_at) / Fold change /veh RGS16 (11720943_a_at) / RFU RGS16 (11720944_at) / Fold change /veh RGS16 (11720944_at) / RFU, VPS4B / Fold change vs veh, VPS4B / RFU, CREB1 / Fold change vs veh, CREB1 / RFU, DNAJC13 / Fold change vs veh, DNAJC13 / RFU, GNAQ / Fold change vs veh, GNAQ / RFU, CDK5R1 / Fold change vs veh, CDK5R1 / RFU, ZRANB3 / Fold change vs veh, ZRANB3 / RFU, CUL4A / Fold change vs veh, CUL4A / RFU, CCNY / Fold change vs veh, CCNY / RFU, UFL1 / Fold change vs veh, UFL1 / RFU, COG3 / Fold change vs veh, COG3 / RFU, DIAPH2 / Fold change vs veh, DIAPH2 / RFU, SKA2 / Fold change vs veh, SKA2 / RFU, AFF3 / Fold change vs veh, AFF3 / RFU, LMF1 / Fold change vs veh, LMF1 / RFU, IPO11 / Fold change vs veh, IPO11 / RFU, DFFB / Fold change vs veh, DFFB / RFU, FOXP1 / Fold change vs veh, FOXP1 / RFU, CARD8 / Fold change vs veh, CARD8 / RFU, STRN3 / Fold change vs veh, STRN3 / RFU, ADK / Fold change vs veh, ADK / RFU, RASSF2 / Fold change vs veh, RASSF2 / RFU, WIPF1 / Fold change vs veh, WIPF1 / RFU, LARP1B / Fold change vs veh, LARP1B / RFU, RASA1 / Fold change vs veh, RASA1 / RFU, RB1 / Fold change vs veh, RB1 / RFU, PPFIA1 / Fold change vs veh, PPFIA1 / RFU, MAT2A / Fold change vs veh, MAT2A / RFU, CCT5 / Fold change vs veh, CCT5 / RFU, WDR92 / Fold change vs veh, WDR92 / RFU, CUX1 / Fold change vs veh, CUX1 / RFU, TTC7A / Fold change vs veh, TTC7A / RFU, TMEM135 / Fold change vs veh, TMEM135 / RFU, DEPTOR / Fold change vs veh, DEPTOR / RFU, CPM / Fold change vs veh, CPM / RFU, DNAJB6 / Fold change vs veh, DNAJB6 / RFU, CACNA2D3 / Fold change vs veh, CACNA2D3 / RFU, DTX4 / Fold change vs veh, DTX4 / RFU, TFCP2 / Fold change vs veh, TFCP2 / RFU, GMCL1 /// GMCL1P1 / Fold change vs veh, GMCL1 /// GMCL1P1 / RFU, AEBP2 / Fold change vs veh, AEBP2 / RFU, SNHG1 /// SNORD22 /// SNORD25 /// SNORD26 /// SNORD27 /// SNORD28 /// SNORD29 /// SNORD31 / Fold change vs veh, SNHG1 /// SNORD22 /// SNORD25 /// SNORD26 /// SNORD27 /// SNORD28 /// SNORD29 /// SNORD31 / Fold change (Aza/veh), C12orf56 (ProbeSet 11735607_a_at) / Fold change (ACY-1035/veh), C12orf56 (ProbeSet 11735607_a_at) / Fold change (Aza/veh), FGFR1OP (ProbeSet 11751329_s_at) / Fold change (ACY-1035/veh), FGFR1OP (ProbeSet 11751329_s_at) / Fold change (Aza/veh), VPS36 (ProbeSet 11739960_a_at) / Fold change (ACY-1035/veh), VPS36 (ProbeSet 11739960_a_at) / RFU SYPL1 (11715823_x_at) / Fold change /veh SYPL1 (11715823_x_at) / RFU IGFBP7 (11715501_s_at) / Fold change /veh IGFBP7 (11715501_s_at) / RFU REEP3 (11722064_at) / Fold change /veh REEP3 (11722064_at) / RFU IGLL1 (11728026_x_at) / Fold change /veh IGLL1 (11728026_x_at): dose or concentration left out as unconfirmed
Details: MV-4-11 cells, 48 hours

Nc1ncn([C@@H]2O[C@H](CO)[C@@H](O)[C@H]2O)c(=O)n1 [azacitidine]
Fold change /veh MYO3A (11730013_a_at): 0.99
